Assay type in all cases: cell-based
The test system of test [1] is human CSKs (at passage 6). Briefly: Collagen gel contraction assay. The conditions noted are these: TGFβ1 (20 ng/ml) added to KBM with 2% FBS, 48 hours. The procedure: Bovine type I collagen gels were made to a final concentration of 2.5 mg/ml as liquid with KBM and supplements. It was mixed with cells at a density of 10^5 cells/ml and 0.5 ml mixture was added to each well of 24-multiwell plate coated with 1% BSA. It was allowed to gelation at 37° C. for 1 hour before addition of appropriate medium. After 24 hours, the gel was released from the side of culture well with a sterile needle to initiate contraction. The collagen gel size change was recorded at 48-hour interval and measured using Image J software (NIH). The percentages of collagen gel size to the size of culture well were compared among different treatments. Experiment was done in quadruplicate and the percentages of gel contraction were represented as median and interquartile range. Intergroup significance was calculated by Mann-Whitney U test.

The subject of a further test is Smad2/3. Put plainly: TGFβ-mediated nuclear localization of Smad2/3 (immunofluorescence). The conditions noted are these: TGFβ1 10 ng/ml, human CSKs at passage 5. The procedure:
The samples were fixed with freshly prepared 2% neutral buffered paraformaldehyde (Sigma), quenched with ice-cold 50 mM ammonium chloride (Sigma) and permeabilized with 0.15% saponin (Sigma). After blocking with 2% bovine serum albumin (Sigma) and 2% normal goat serum (Invitrogen), the cells were incubated with primary antibody recognizing aldehyde dehydrogenase 1A1 (ALDH1A1, Proteintech), lumican (LUM, Bioss), transketolase (Tkt, Cell Signalling), αSMA (Sigma) or Alexa Fluor 543-conjugated phalloidin (Sigma), respectively. The secondary antibodies were either Alexa488 or Rhodamine Red-X-conjugated (Jackson ImmunoRes Lab, West Grove, Pa.). All nuclei were counterstained with DAPI (4′,6-diamidino-2-phenylindole, Santa Cruz) and samples were mounted in FluorShield (Sigma). Results were visualized under fluorescence microscopy (Carl Zeiss) or confocal laser-scanning microscopy (LSM 510 Meta, Carl Zeiss).
To examine if LAE (ASE) was effective in suppressing CSK transition to fibroblasts, TGFβ-mediated nuclear localization of Smad2/3 was studied.

For a further test, the system named is primary human CSKs. Briefly: F-actin stress fiber pattern by phalloidin staining (stress index). The procedure: Cornea specimens were washed in sterile PBS (0.01 M, Invitrogen, Carlsbad, Calif., US) added with 3% antibiotics-antimycotes (penicillin S, streptomysin sulfate and amphoptericin B, Invitrogen). Central corneal buttons (1 mm from peripheral limbus) were trephined and treated with dispase II (20 mg/ml, Roche, Basal, Switzerland) to remove corneal epithelium and endothelium. The stroma tissue was trimmed into small fragments (˜1 mm^3 in size) and digested with collagenase I (0.1%, Worthington, Lakewood, N.J., US) in keratocyte basal medium (KBM) for 8 to 10 hours at 37° C. After repeat pipetting, the cell suspension was passed through cell strainer (40 μm pore size), followed by centrifugation at 400 g for 5 min at room temperature. […]
The samples were fixed with freshly prepared 2% neutral buffered paraformaldehyde (Sigma), quenched with ice-cold 50 mM ammonium chloride (Sigma) and permeabilized with 0.15% saponin (Sigma). […] Results were visualized under fluorescence microscopy (Carl Zeiss) or confocal laser-scanning microscopy (LSM 510 Meta, Carl Zeiss).
[…] The percentage of stress cells in triplicate experiments was expressed as mean±SD. Results were compared and analyzed by paired Student's t-test and Dunn-Bonferroni correction.

The values below come from patent US20160230142A1, “CORNEAL STROMAL KERATOCYTE CULTURE” (SINGAPORE HEALTH SERVIES PTE LTD., priority 2013, published 2016).

In the case of TGFβ1: recombinant human TGFβ1, the “gel contraction (median)” value in test [1] was 91.7%. The “cells with nuclear Smad2/3” value with Smad2/3 (3 days) is 43.8%; in the test with Smad2/3 (incubated for 3 hours), 22%.
For “IGF1: insulin-like growth factor 1 (10 ng/ml, Invitrogen)”, the “cells with stress F-actin fibre” value in the test with primary human CSKs (IGF1-treated cells with 0.5% FBS) stood at 29.3±7.3%.
On to `C[C@@H](N)[C@H]1CC[C@H](C(=O)Nc2ccncc2)CC1` [Y27632, (1R,4r)-4-((R)-1-aminoethyl)-N-(pyridin-4-yl)cyclohexanecarboxamide], for which, in the test on primary human CSKs (Y27632 (10 μM) added to KBM+0.5% FBS, 5 random fields), the “stress index (percentage of cells with stress fibre pattern)” value is listed as 7.6±2.9%.
